Measurements published in article PMC8156206, “Novel N,N′-Disubstituted Selenoureas as Potential Antioxidant and Cytotoxic Agents” (Antioxidants, 2021).
Read-outs that look alike come from different tables or passages of the source.

How the values were obtained:
[1] = tested on: MCF-7 cells (breast adenocarcinoma); experiment: MTT cell viability assay, MCF-7; assay type: cell-based, human; conditions: for IC50 / viability at 10 µM / viability at 50 µM: Homo sapiens; for IC50: read-out: IC50 MCF-7 (breast); for viability at 10 µM / viability at 50 µM: read-out: cell viability, percentage of live cells; for SI (selectivity index) breast: IC50 (184B5)/IC50 (MCF-7)
Method: (§1) Cell lines were purchased from the American Type Culture Collection (ATCC). MCF-7, HTB-54, BEAS-2B and 184B5 cell lines were grown in RPMI 1640 medium (Gibco) supplemented with 10% fetal bovine serum (FBS; Gibco), 100 units/mL penicillin, and […] streptomycin (Gibco). HT-29 and HCT-116 cell lines was cultured in McCoy’s 5A (Gibco), 10% FBS, 100 units/mL penicillin, and 100 μg/mL streptomycin. Cells were maintained at 37 °C and 5% CO2. Culture medium was replaced every three days.
(§2) A cell viability assay of each compound was carried out using an MTT assay. Each selenourea was dissolved in dimethyl sulfoxide (DMSO) at a concentration of 0.01 M. Serial dilutions were prepared with non-supplemented culture medium. Cytotoxic activity of each selenourea was determined at two different concentrations (10 and 50 µM) in MCF-7, HTB-54, and HT-29 cells. In addition, selected compounds were tested at seven different concentrations (0.1, 1, 5, 10, 25, 50, 100 µM) on MCF-7, HT-29, HCT-116, HTB-54, 184B5, and BEAS-2B cells. The number of passages before defrosting the cells was 3, and they were kept under culture up to a maximum of 15.
(§3) Briefly, 1 × 10^4 cells/well were grown in 96-well plates for 24 h. Then, these cells were incubated with either DMSO (negative control) at 5 µM or a different concentration of each tested selenourea for 48 h. A volume of 20 µL of MTT was added 150 min before the termination point to measure cellular viability. After this time, culture medium was removed. The resultant formazan crystals were dissolved in 50 µL of DMSO, and absorbance was measured at 570 nm. Results are expressed as IC50, the half maximal inhibitory concentration. This value was calculated using GraphPad Prism 7 software by nonlinear curve fitting. Furthermore, the selectivity index (SI) was calculated as the ratio of the IC50 values determined for the non-malignant and the tumoral cells (IC50 (184B5)/IC50 (MCF-7) or (IC50 (BEAS-2B)/IC50 (HTB-54). Data were obtained from at least three independent experiments performed in triplicates.
(§4) The cytotoxic effects of synthesized compounds were evaluated against three human cancer cell lines: breast adenocarcinoma (MCF-7), lung adenocarcinoma (HTB-54), and colon carcinoma (HT-29), using a 3-[4,5-dimethylthiazol-2-yl]-2,5-diphenyltetrazolium bromide (MTT) assay. Firstly, the compounds were screened at two doses (50 and 10 µM) and after 48 h of treatment. The results are summarized in Figure 4 and are presented as percentages of growth inhibition related to control.

[2] = tested on: HT-29 cells (colon carcinoma); experiment: MTT cell viability assay, HT-29; assay type: cell-based; conditions: Homo sapiens; for IC50: read-out: IC50 HT-29 (colon); for viability at 10 µM / viability at 50 µM: read-out: cell viability, percentage of live cells
Method: as §1, §2, §3, §4

HCT-116 cells (colon) = experiment: MTT cell viability assay, HCT-116; assay type: cell-based; conditions: Homo sapiens, read-out: IC50 HCT-116 (colon)
Method: as §1, §2, §3

[3] = tested on: HTB-54 cells (lung adenocarcinoma); experiment: MTT cell viability assay, HTB-54; assay type: cell-based, human; conditions: for IC50 / viability at 10 µM / viability at 50 µM: Homo sapiens; for IC50: read-out: IC50 HTB-54 (lung); for viability at 10 µM / viability at 50 µM: read-out: cell viability, percentage of live cells
Method: as §1, §2, §3, §4

[4] = tested on: 184B5 cells (breast non-malignant derived cell line); experiment: MTT cell viability assay, 184B5; assay type: cell-based; conditions: Homo sapiens, read-out: IC50 184B5 (breast, non-malignant)
Method: as §1, §2, §3

[5] = DPPH radical scavenging assay; conditions: for DPPH radical scavenging kinetics: 0.03 mg/mL, time-point 0 min
Method: (§5) From all the methods available for the prediction of the antioxidant properties, DPPH^● and ABTS^●+ assays were chosen according to their simplicity, accessibility, and effectiveness for a fast prediction of radical scavenging activities in vitro. The radical scavenging capacity of the novel selenoureas was determined by DPPH^● and ABTS^●^+ assays. Measurements were recorded on a BioTeck PowerWave XS spectrophotometer (BioTeck Instruments, Winooski (VT), USA) and the data were collected using KCJunior software (BioTeck Instruments, Winooski (VT), USA).
A DPPH assay was performed, as described by Svinyarov. Stock solutions of 1 mg/mL were initially prepared for each selenourea in methanol and this solution was used for the preparation of the different concentrations employed in the assay. Ascorbic acid (Asc) was used as positive control due to the literature reports that this derivative is a potent antioxidant and radical scavenger. A volume of 100 µL from a previously prepared stock solution (preserved in dark and daily prepared) of DPPH (100 µM) in methanol were added to 100 µL of the methanolic selenoureas solutions prepared previously, and the antioxidant activity these compounds was assessed by its ability to decolorize DPPH● radical (purple color in methanol) to DPPHH (colorless). Thus, radical scavenging activity was estimated by the decrease in the absorbance at 517 nm. Determinations were recorded at different time-points. All the measurements were carried out in triplicate. Results are expressed as the percentage of the radicals scavenged, calculated using the following formula:(1) % DPPH radical scavenging=Acontrol − Asample/Acontrol × 100 where Acontrol refers to the absorbance of the negative control and Asample refers to the absorbance of the tested compounds. Results are expressed as percentage of DPPH radical scavenging ± SD.
In order to determine the radical scavenging of these newly synthesized selenourea derivatives, the DPPH assay was firstly employed. Measurements were performed at four different concentrations ranging from 0.0003 to 0.03 mg/mL, and collected at time-points between 0 min and 120 min (Figures S81–S100). Results are presented as the percentage of inhibition for DPPH radical scavenging activity.

[6] = tested on: BEAS-2B cells (lung non-malignant derived cell line); experiment: MTT cell viability assay, BEAS-2B; assay type: cell-based; conditions: Homo sapiens, 48 h, mean ± SD
Method: as §1, §2, §3

[7] = ABTS radical scavenging assay; conditions: 0.003 mg/mL, 60 min
Method: as §5
As well as DPPH, ABTS radical scavenging assay is a colorimetric method. ABTS (2,2′-azino-bis(3-ethylbenzothiazoline-6-sulfonic acid) was dissolved in deionized water at 1 mg/mL and oxidized to ABTS^●+ with potassium persulfate (2.45 mM final concentration). This oxidation process is not instantaneous, and the reaction mixture was kept in the dark overnight at room temperature. After ABTS^●+ radical was generated, the ABTS^●+ solution was diluted with 50% ethanol until an absorbance of 0.70 ± 0.02 at 734 nm for measurements was achieved. Stock solution of 1 mg/mL in absolute ethanol was prepared for each selenourea, and different dilutions were prepared to reach the final concentration, when 20 µL of this solution were added to 180 µL of the diluted ABTS^●+. The absorbance at 734 nm was recorded using 50% ethanol as blank. Trolox and Asc were used as positive controls. All determinations were carried out in triplicate. Same time intervals as in the DPPH assay were also measured. The ability to scavenge ABTS^●+ was calculated using the following formula:(2) % ABTS radical scavenging=Acontrol − Asample/Acontrol × 100 where Acontrol refers to the absorbance of the negative control and Asample refers to the absorbance of the tested compounds. The results are expressed as percentage of ABTS radical scavenging ± SD.
In order to confirm the antioxidant activity of the selenoureas, we performed an additional ABTS (2,2′-azino-bis(3-ethylbenzothiazoline-6-sulfonic acid) radical scavenging assay. Following the results obtained in the DPPH assay, this experiment was performed at 0.03 and 0.003 mg/mL. Measurements were recorded after 0′, 6′ and 60′ of incubation with ABTS. For comparison purposes, Trolox and ascorbic acid were used as references. The remarkable results are summarized in Figure 3.

[8] = Stability of the selenoureas before screening; assay type: physicochemical

Structure (SMILES)	melting point	IC50 ([1]; MCF7, 48 h, MTT, mean ± SD)	viability at 10 µM ([1]; MCF7, MCF-7, 10 µM, 48 h, MTT)	viability at 50 µM ([1]; MCF7, MCF-7, 50 µM, 48 h, MTT)	IC50 ([2]; HT-29, 48 h, MTT, mean ± SD)	viability at 10 µM ([2]; HT-29, 10 µM, 48 h, MTT)	viability at 50 µM ([2]; HT-29, 50 µM, 48 h, MTT)	IC50 ([3]; HTB-54, 48 h, MTT, mean ± SD)	viability at 10 µM ([3]; HTB-54, 10 µM, 48 h, MTT)	viability at 50 µM ([3]; HTB-54, 50 µM, 48 h, MTT)	stability of the compound before screening [8]	other results
Clc1ccc(NC(=[Se])NCc2ccco2)cc1 [Compound 1d]	128 °C	> 10 µM	78.2%	27.9%	8.07 ± 3.77 µM	48.6%	35%	> 10 µM	52.2%	27.3%	–	IC50 (HCT-116 cells (colon); HCT-116, 48 h, MTT, mean ± SD): 7.8 ± 0.56 µM
[Se]=C(NCc1nccs1)Nc1ccccc1 [Compound 2a]	149 °C	9.16 ± 3.49 µM	41%	42.8%	> 10 µM	79.7%	47.3%	> 10 µM	51.1%	45.7%	–	SI (selectivity index) breast [1]: 1.20; IC50 ([4]; 184B5, 48 h, MTT, mean ± SD): 11 ± 0.73 µM; DPPH radical scavenging kinetics [5]: reaching the maximum activity at time-point 0′
Clc1ccc(NC(=[Se])NCc2nccs2)cc1 [Compound 2d]	165 °C	> 10 µM	59.7%	35%	> 10 µM	77.2%	67.1%	8.65 ± 0.29 µM	45.8%	37.2%	–	IC50 [6]: 5.22 ± 0.07 µM; SI (selectivity index) lung ([3]; IC50 (BEAS-2B)/IC50 (HTB-54)): 0.60; DPPH radical scavenging capacity compared with ascorbic acid ([5]; at lower concentrations): greater radical scavenging capacity than ascorbic acid
O=c1ccc2cc(NC(=[Se])Nc3ccccc3)ccc2o1 [Compound 3a]	169 °C	> 10 µM	53.5%	29.8%	6.49 ± 1.58 µM	47.5%	30.2%	> 10 µM	66%	10.3%	–	IC50 (HCT-116 cells (colon); HCT-116, 48 h, MTT, mean ± SD): 5.86 ± 0.52 µM; DPPH radical scavenging kinetics [5]: reaching the maximum activity at time-point 0′
N#Cc1ccc(NC(=[Se])Nc2ccc3oc(=O)ccc3c2)cc1 [Compound 3e]	140 °C	–	59.7%	31.1%	–	66.6%	32.2%	–	60.8%	17.8%	–	ABTS radical scavenging activity compared with Trolox [7]: significant lower radical scavenging activity than Trolox; DPPH radical scavenging kinetics [5]: reaching the maximum activity at time-point 0′
CCCCNC(=[Se])Nc1ccccc1 [Compound 4a]	69 °C	–	–	–	–	–	–	–	–	–	decomposed before screening	–
CCCCNC(=[Se])Nc1ccc(C)cc1 [Compound 4b]	46 °C	–	–	–	–	–	–	–	–	–	decomposed before screening	–
CCCCNC(=[Se])Nc1ccc(OC)cc1 [Compound 4c]	89 °C	–	–	–	–	–	–	–	–	–	decomposed before screening	–
CCCCCCNC(=[Se])Nc1ccccc1 [Compound 5a]	59 °C	–	–	–	–	–	–	–	–	–	decomposed before screening	–
CCCCCCNC(=[Se])Nc1ccc(C)cc1 [Compound 5b]	88 °C	–	–	–	–	–	–	–	–	–	decomposed before screening	–
[Se]=C(Nc1ccccc1)NC12CC3CC(CC(C3)C1)C2 [Compound 6a, N´-adamantyl-N-(phenyl)selenourea]	161 °C	–	–	–	–	–	–	–	–	–	–	IC50 ([1]; MCF7, 48 h): 9.88 ± 1.46 µM; viability at 10 µM ([1]; MCF7, 48 h): 54.3%; viability at 50 µM ([1]; MCF7, 48 h): 18.2%; SI (selectivity index) breast [1]: 2.25; IC50 ([4]; 184B5, 48 h): 22.2 ± 4.07 µM; ABTS radical scavenging activity compared with Trolox [7]: significant lower radical scavenging activity than Trolox; IC50 ([2]; HT-29, 48 h): 5.03 ± 3.06 µM; viability at 10 µM ([2]; HT-29, 48 h): 43%; viability at 50 µM ([2]; HT-29, 48 h): 33.9%; IC50 (HCT-116 cells (colon); HCT-116, 48 h): 5.69 ± 0.71 µM; IC50 ([3]; HTB-54, 48 h): > 10 µM; viability at 10 µM ([3]; HTB-54, 48 h): 51.9%; viability at 50 µM ([3]; HTB-54, 48 h): 15.7%
